Measured values as given in US20260284095A1 (Mayo Foundation for Medical Education and Research, priority 2023, published 2026).

Columns and labels:
DDR2 = assay: ASO screen in H4 neuroglioma cells, DDR2 knock-down; type: cell-based; settings: ASO 10 nM and 100 nM in the screen
Description: (§1) Expression levels of DDR2, KANK2, and STOM were confirmed to have similar expression levels in the H4 neuroglioma cells (ATCC cat #HTB-148) and PSP brain homogenate (FIG. 27), and then ASOs described in Example 3 were screened for various characteristics in H4 cells. cDNA reverse transcription kits High-Capacity cDNA Reverse Transcription Kit (High-cap, Thermo Fisher Scientific, cat #4368814) and SuperScript™ IV VILO™ (VILO, Thermo Fisher Scientific, cat #11756050) were assessed. Both cDNA synthesis kits tested quantitatively reverse transcribed RNA into cDNA (FIG. 28). qPCR master mixes TaqMan™ Fast Advanced (Fast Advance, Thermo Fisher Scientific, cat #4444556) and TaqMan™ Universal PCR Master Mix (Universal, Thermo Fisher Scientific, cat #4364340) were assessed. Both qPCR master mixes quantitatively amplified cDNA and generated detectable signals (FIG. 29). Multiplexed qPCR assays were also performed. Duplexed gene quantification yielded similar results as singleton qPCR setups (FIG. 30). ASOs targeting PPIB were used as a positive control to confirm delivery of the ASOs to H4 cells and establish ASO screening parameters (FIG. 31).
(§2) ASOs described in Example 3 were screened in the H4 neuroglioma cells. Different concentrations of ASOs (10 nM and 100 nM) were administered and knock-down efficiency (measured by fold change of mRNA compared to non-targeting ASO treated controls) and ASO toxicity (measured by LDH assay) were determined (FIGS. 32A-32F).
(§3) Three ASO hits were selected for each target (DDR2: D4, D5, D9; KANK2: K4, K5, K10; STOM: S1, S4, S10). The knock-down efficiency (mRNA change) and ASO safety (cell toxicity as measured by LDH assay and viability as measured by XTT assay) were repeated/performed to validate the hits, as shown in FIG. 33A-33C.
(§4) Knock-down was assessed by measuring polypeptide levels (FIGS. 35, 40, 41) using western Blot.

KANK2 = assay: ASO screen in H4 neuroglioma cells, KANK2 knock-down; type: cell-based; settings: ASO 10 nM and 100 nM in the screen
Description: as §1, §2, §3, §4

STOM = assay: ASO screen in H4 neuroglioma cells, STOM knock-down; type: cell-based; settings: ASO 10 nM and 100 nM in the screen
Description: as §1, §2, §3, §4

[1] = test system: GMR>Tau Drosophila (tau-mediated eye degeneration); assay: Dasatinib in Drosophila tau eye degeneration model; type: in vivo, Drosophila melanogaster; settings: fly food with dasatinib 1 μM or 10 μM vs DMSO 0.5%; flies aged 5 days; blinded eye score
DDR2 mRNA [2] = assay: ASO D5 target engagement in iPSC-derived astrocytes; type: cell-based
Description: (§5) Induced pluripotent stem cells (iPSCs) were examined as a model to assess target engagement of the ASO D5 (targeting DDR2). […] ASO D5 was administered to iPSCs-derived astrocytes and neurons separately following the schematic depicted in FIGS. 38-39.

DDR2 mRNA [3] = assay: ASO D5 target engagement in iPSC-derived neurons; type: cell-based
Description: as §5

D4: ASO targeting DDR2, ACAGAGTCAGGACAAATGGC, 2'-MOE wings, phosphorothioate bonds (all phosphorothioate, sugars by position and methylation of C not given here; 2'-MOE wings)
knock-down efficiency of DDR2 (fold change of mRNA compared to non-targeting ASO; polypeptide by western blot) (DDR2): hits

K10: ASO targeting KANK2, CGTCCTGTCTTGCTTTGTCT, 2'-MOE wings, phosphorothioate bonds (all phosphorothioate, sugars by position and methylation of C not given here; 2'-MOE wings)
knock-down efficiency of KANK2 (fold change of mRNA compared to non-targeting ASO; polypeptide by western blot) (KANK2): hits

K5: ASO targeting KANK2, CCCTCAGACACCCACAATTA, 2'-MOE wings, phosphorothioate bonds (all phosphorothioate, sugars by position and methylation of C not given here; 2'-MOE wings)
knock-down efficiency of KANK2 (fold change of mRNA compared to non-targeting ASO; polypeptide by western blot) (KANK2): hits

S10: ASO targeting STOM, ACACGCTCCACCTTTATTCC, 2'-MOE wings, phosphorothioate bonds (all phosphorothioate, sugars by position and methylation of C not given here; 2'-MOE wings)
knock-down efficiency of STOM (fold change of mRNA compared to non-targeting ASO; polypeptide by western blot) (STOM): hits

S4: ASO targeting STOM, GCAATGGTGGTCAGTGTCTG, 2'-MOE wings, phosphorothioate bonds (all phosphorothioate, sugars by position and methylation of C not given here; 2'-MOE wings)
knock-down efficiency of STOM (fold change of mRNA compared to non-targeting ASO; polypeptide by western blot) (STOM): hits

S1: ASO targeting STOM, GGACTACGAATTCACAAGGC, 2'-MOE wings, phosphorothioate bonds (all phosphorothioate, sugars by position and methylation of C not given here; 2'-MOE wings)
knock-down efficiency of STOM (fold change of mRNA compared to non-targeting ASO; polypeptide by western blot) (STOM): hits

K4: ASO targeting KANK2, GCAAGCCAGTCTACATCAAG, 2'-MOE wings, phosphorothioate bonds (all phosphorothioate, sugars by position and methylation of C not given here; 2'-MOE wings)
knock-down efficiency of KANK2 (fold change of mRNA compared to non-targeting ASO; polypeptide by western blot) (KANK2): hits

Cc1nc(Nc2ncc(C(=O)Nc3c(C)cccc3Cl)s2)cc(N2CCN(CCO)CC2)n1 [dasatinib]
tau-mediated eye degeneration [1]: dosage-dependent reduction

D5: ASO targeting DDR2, CACTCTTGCAGCAGACATTC, 2'-MOE wings, phosphorothioate bonds (all phosphorothioate, sugars by position and methylation of C not given here; 2'-MOE wings)
DDR2 mRNA (DDR2 mRNA [2]): reduced DDR2 mRNA | knock-down efficiency of DDR2 (fold change of mRNA compared to non-targeting ASO; polypeptide by western blot) (DDR2): hits | DDR2 mRNA (DDR2 mRNA [3]): reduced DDR2 mRNA

D9: ASO targeting DDR2, CTGCTCATTCCAAAGTCAGC, 2'-MOE wings, phosphorothioate bonds (all phosphorothioate, sugars by position and methylation of C not given here; 2'-MOE wings)
knock-down efficiency of DDR2 (fold change of mRNA compared to non-targeting ASO; polypeptide by western blot) (DDR2): hits
